PMC9555310, “Novel inhibitors and activity-based probes targeting serine proteases” (Frontiers in Chemistry, 2022)

Experiments:
NE in CF Sol samples = molecular target: T1, NE in CF Sol samples (Homo sapiens, UniProt P08246); assay: Fluorogenic substrate assay of elastase-like activity in CF Sol; format: biochemical; details: 50 μM; CF Sol sample 26w at 2.5% (v/v); PBS pH 7.4, 37°C; 60 min
T1 construct: from tissue; host or cells: Cystic Fibrosis (CF) Sol samples 26w and 41w from patients
T1 sequence (P08246 30-267): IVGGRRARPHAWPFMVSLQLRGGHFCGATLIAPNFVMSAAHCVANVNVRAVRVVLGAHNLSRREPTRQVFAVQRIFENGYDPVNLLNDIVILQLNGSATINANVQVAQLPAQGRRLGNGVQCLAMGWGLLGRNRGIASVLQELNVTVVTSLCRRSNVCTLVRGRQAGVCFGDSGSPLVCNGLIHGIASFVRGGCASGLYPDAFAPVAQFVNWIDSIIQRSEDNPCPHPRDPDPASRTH
Protocol: FIGURE 7 Activity Based Profiling of serine proteases by peptide N-Alkyl glycine carbamates. (A,B) record the results for the incubation of NE with NAP800 and chymotrypsin with NAP849. NE and Chymotrypsin were treated (±) with NAP800 and NAP849, respectively (± pre-heat inactivation at 95°C, for 10 min), for 30 min, at 37°C. (C) Determination of NE levels in CF samples using fluorogenic substrate assay. NE assays were carried out in PBS, pH 7.4, at 37°C. CF Sol (sample 26w) was used at a final concentration of 2.5% (v/v), and the level of NE contained therein was measured using Succinyl-Ala-Ala-Pro-Val-NHMec (50 μM), in the absence (-- o --) and presence (-- o --) of NAP800 (50 μM). (D) Activity based profiling of CF Sol using NAP800. CF Sol samples 26w and 41w were treated (+) with 50 μM NAP800 (+ pre-heat inactivation at 95°C, for 10 min), for 30 min, at 37°C.
Initially, as a quick screen, a fluorogenic enzyme assay was performed on CF Sol samples, using the elastase fluorogenic substrate MeO-Succinyl-Ala-Ala-Pro-Val-NHMec, the results of one such experiment (performed on sample 26w) is recorded in Figure 7C.

[1] = molecular target: T2, elastase-like proteases (NE) in CF Sol samples (Homo sapiens, UniProt P08246); assay: Activity-based profiling of CF Sol samples (SDS-PAGE, streptavidin-HRP western blot); format: binding; details: 50 μM, 30 min, 37°C; band ∼29 kDa
T2 construct: from tissue; host or cells: Cystic Fibrosis (CF) Sol samples 26w and 41w from patients
T2 sequence (P08246 30-247 limits assumed): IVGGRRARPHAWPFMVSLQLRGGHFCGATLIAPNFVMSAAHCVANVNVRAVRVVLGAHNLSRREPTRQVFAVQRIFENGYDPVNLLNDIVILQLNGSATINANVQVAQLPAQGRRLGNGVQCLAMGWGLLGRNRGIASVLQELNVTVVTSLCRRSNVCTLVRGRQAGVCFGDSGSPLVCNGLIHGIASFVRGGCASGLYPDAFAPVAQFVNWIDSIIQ
Protocol: (§1) Samples of recombinant protease (trypsin, plasmin, thrombin, chymotrypsin, or HNE, as indicated in the relevant figure legends) were treated with each of the newly synthesized compounds at a concentration of 50 μM, for 30 min, at 37°C. A control sample (no ABP) was prepared by treating the recombinant protease with solvent vehicle (DMF) only, used to prepare the stock solution of each ABP. Samples were also pre-treated (±90°C for 30 min) before being incubated with each putative ABP. With trypsin and thrombin, further samples were prepared where Z-Arg^P-(OPh)2 or NAP559, respectively, was added 30 min prior to the addition of the ABP under examination. All treated samples were then denatured with SDS containing reducing treatment buffer (10 min at 95°C), followed by resolution by SDS-PAGE and subjected to Western blotting. Resolved proteins were then transferred onto the nitrocellulose membrane and labeled with streptavidin-HRP. The ABP–protease complex was then visualized following treatment with Luminata Forte HRP substrate.
FIGURE 7 Activity Based Profiling of serine proteases by peptide N-Alkyl glycine carbamates. […] CF Sol (sample 26w) was used at a final concentration of 2.5% (v/v), and the level of NE contained therein was measured using Succinyl-Ala-Ala-Pro-Val-NHMec (50 μM), in the absence (-- o --) and presence (-- o --) of NAP800 (50 μM). […]

trypsin = molecular target: T3, trypsin (Sus scrofa, UniProt P00761); assay: Activity-based profiling of trypsin (SDS-PAGE, streptavidin-HRP western blot); format: binding, porcine; details: 50 μM ABP, 30 min, 37°C; band of apparent molecular weight 23 kDa
T3 construct: purchased Sigma-Aldrich; host or cells: porcine pancreas
T3 sequence (P00761 9-231): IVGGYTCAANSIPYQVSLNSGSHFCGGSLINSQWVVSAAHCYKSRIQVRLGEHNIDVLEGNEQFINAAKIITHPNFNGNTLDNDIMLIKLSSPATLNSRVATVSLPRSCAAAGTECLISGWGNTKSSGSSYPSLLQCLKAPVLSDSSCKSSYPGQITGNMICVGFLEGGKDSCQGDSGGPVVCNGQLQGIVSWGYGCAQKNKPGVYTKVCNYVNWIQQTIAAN
Protocol: as §1, with “The ABP–protease complex was then visualized following treatment with Luminata Forte HRP substrate.” left out
(§2) Following transfer, the extra protein binding sites on the membrane were blocked by addition of 3% (w/v) BSA in TBST (20 mM Tris, 137 mM NaCl, 1% (v/v) Tween 20, pH 7.6) and agitated gently at room temperature for 30 minutes. The biotin-labelled proteases were then detected by addition of Streptavidin-HRP (Vector Laboratories) in 3% (w/v) BSA in TBST at a concentration of 1:20000, for 1 hour at room temperature. […]

thrombin = molecular target: T4, thrombin (Homo sapiens, UniProt P00734); assay: Activity-based profiling of thrombin (SDS-PAGE, streptavidin-HRP western blot); format: binding; details: pre-treatment 30 min, 37°C
T4 construct: apparent molecular mass of 31 kDa, corresponding to the heavy (catalytic) chain of the protease; purchased R&D Systems
Protocol: as §1
FIGURE 8 Activity Based Profiling of Trypsin-like serine proteases. (A) trypsin was treated (±) with NAP830, for 30 min, at 37°C (± pretreatment with Z-Arg^P-(OPh)2). (B) thrombin (1 […]) was pre-treated with various concentrations of NAP559 (30 min, at 37°C) followed by treatment (±) with NAP858 for 30 min, at 37°C. (C) Plasmin was treated in turn with QUBTL1, NAP962 and NAP830, (± pre-heat inactivation at 95°C, for 10 min) for 30 min, at 37°C. […]
as §2

Structure (SMILES): CC(C)N(CC(=O)NCC(=O)NCC(=O)NCCCOCCOCCOCCCNC(=O)CCCCC1SCC2NC(=O)NC21)C(=O)ON1C(=O)CCC1=O (stereo not drawn) [NAP800, Succinimidoyl-CO-NVal-Gly-Gly-PEG-Biotin]
- blockade of MeO-Succinyl-Ala-Ala-Pro-Val-NHMec cleavage in CF Sol (NE in CF Sol samples): progressive and ultimately complete blockade of substrate cleavage
- labelling of elastase-like proteases in CF Sol (western blot) [1]: detection of a diffuse band in two CF Sol samples (26w and 41w)

Structure (SMILES): NCCCCN(CC(=O)NCC(=O)NCC(=O)NCCCOCCOCCOCCCNC(=O)CCCCC1SCC2NC(=O)NC21)C(=O)ON1C(=O)CCC1=O (stereo not drawn) [NAP830, Succinimidoyl-CO-NLys-Gly-Gly-PEG-Biotin]
- labelling of trypsin by ABP (western blot) (trypsin): enabled the active site labeling and detection of the protease

Structure (SMILES): N=C(N)NCCCN(CC(=O)N1CCC[C@H]1C(=O)N(CC(N)=O)Cc1ccccc1)C(=O)ON1C(=O)CCC1=O [NAP559, Succinimidoyl-CO-NArg-D-Pro-NPhe-NH2]
- effect of pre-treatment of thrombin on 31 kDa band disclosed by NAP858 (thrombin; 1 μM): slight but a discernible diminution in the intensity of the band
- effect of pre-treatment of thrombin on 31 kDa band disclosed by NAP858 (thrombin; 10 and 50 μM): almost completely extinguished
